Measured values: PubChem BioAssay (NCI)
Values joined by “and” are separate entries in the source; they are usually repeats but may differ in a detail not shown here. Equal entries are not always repeated.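 Tested at 5 concentrations; 48 h exposure; 96-well plates; endpoints linearly interpolated, else capped at highest concentration. GI50: concentration for 50% inhibition of growth. TGI: concentration producing complete growth inhibition.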

Key:
Experiment in all cases: growth of human tumour cells (NCI), 48 h
SF-295 CNS = tested on: SF-295 CNS
NCI-H23 lung = tested on: NCI-H23 lung
A549 NSCLC = tested on: A549 NSCLC
SK-OV-3 ovarian = tested on: SK-OV-3 ovarian
KM12 colon = tested on: KM12 colon
COLO 205 colon = tested on: COLO 205 colon
HT29 colon = tested on: HT29 colon
LOX IMVI melanoma = tested on: LOX IMVI melanoma
SR leukemia = tested on: SR leukemia
HS 578T breast = tested on: HS 578T breast

SMILES	TGI (SF-295 CNS)	TGI (NCI-H23 lung) [µM]	TGI (A549 NSCLC) [µM]	TGI (SK-OV-3 ovarian) [µM]	TGI (KM12 colon)	TGI (COLO 205 colon) [µM]	TGI (HT29 colon)	TGI (LOX IMVI melanoma) [µM]	TGI (SR leukemia) [µM]	GI50 (SF-295 CNS) [µM]	GI50 (NCI-H23 lung) [µM]	GI50 (A549 NSCLC) [µM]	GI50 (SK-OV-3 ovarian) [µM]	GI50 (HS 578T breast) [µM]	TGI (HS 578T breast) [µM]	GI50 (KM12 colon)	GI50 (COLO 205 colon) [µM]	GI50 (HT29 colon) [µM]	GI50 (LOX IMVI melanoma) [µM]	GI50 (SR leukemia) [µM]
CCC(=C(c1ccc(OCc2ccccc2)cc1)c1ccc(OCc2ccccc2)cc1)c1ccc(OC)cc1	> 100 µM	> 100	> 100	> 100	> 100 µM	> 100	> 100 µM	> 100	> 100	–	–	–	–	–	–	–	–	–	–	–
CCNc1nc(N2CC(=O)Nc3cc(OC)ccc32)c2ccccc2n1	0.00614 µM	> 100	> 100	0.0134	> 100 µM	0.00207	0.01 µM	> 100	–	0.00129	0.000554	0.000737	0.000483	0.00164	47.8	0.000404 µM	0.00035	0.000334	0.000693	–
COc1ccc2c(c1)[n+]([O-])c(-c1nc3ccccc3s1)c(N)[n+]2[O-]	> 100 µM	> 100	> 100	> 100	> 100 µM	> 100	> 100 µM	–	> 100	–	–	–	–	–	–	–	–	–	–	–
CCCCCCCCCCCC(=O)OCC1OC(n2cc(F)c(=O)[nH]c2=O)C(N)C(O)C1O (centres undefined)	> 100 µM	> 100	> 100	> 100	> 100 µM	> 100	> 100 µM	–	> 100	–	–	–	–	–	–	–	–	–	–	–
CNC1C(O)CC(OC2C/C=C(\C)C/C(C)=C/C=C/CCC(C)CNC(=O)/C=C/C=C/C2C)OC1C (centres undefined)	0.682 µM	2.62	–	3.27	1.02 µM	0.679	0.504 µM	0.263	–	–	–	–	–	–	1.85	–	–	–	–	–
Nc1nc(N)c(-c2ccc(Cl)cc2)c(CCC(=O)Nc2cccc(C(F)(F)F)c2)n1	> 100 µM	> 100	> 100	> 100	> 100 µM	> 100	> 100 µM	> 100	> 100	–	–	–	–	–	–	–	–	–	–	–
CC1C(=O)N(C)C2(CO)C(=O)O[C@H](C)C12O (some centres undefined)	> 100 µM	> 100	> 100	> 100	> 100 µM	> 100	> 100 µM	–	> 100	–	–	–	–	–	–	–	–	–	–	–
Clc1ccc(CO/N=C(\Cn2ccnc2)c2ccc(Cl)cc2Cl)c(Cl)c1	–	–	3.32	3.18	–	3.29	3.33 µM	3.21	4.29	–	–	1.55	1.8	2.73	> 100	–	1.86	1.65	1.45	1.65
CCOC(=O)C1=C(C)N(NC(=O)c2ccccc2)C2(O)CCCC12C(=O)OCC (centres undefined)	> 100 µM	–	> 100	> 100	> 100 µM	–	> 100 µM	> 100	> 100	–	–	–	–	–	–	–	–	–	–	–
CSC(=S)NNC(=O)c1ccncc1	46.9 µM	33.2	> 100	96.2	> 100 µM	> 100	37.8 µM	33.6	47.3	–	–	–	–	–	–	–	–	–	–	–
CCCCCCCCCC(=O)OCC1OC(n2cc(F)c(=O)[nH]c2=O)C(N)C(OC(=O)CCCCCCCCC)C1O (centres undefined)	31.9 µM	36	34.1	> 100	41.2 µM	31.2	35.8 µM	30.1	45.3	–	–	–	–	–	–	–	–	–	–	–
O=C(NCC#CCO)C(F)(F)F	–	> 100	> 100	> 100	> 100 µM	–	> 100 µM	> 100	> 100	–	–	–	–	–	–	–	–	–	–	–
O=C(O)/C(Cl)=C(\Cl)C(=O)Nc1ccccc1	> 100 µM	> 100	> 100	> 100	> 100 µM	> 100	> 100 µM	> 100	> 100	–	–	–	–	–	–	–	–	–	–	–
COc1cc2c(cc1OC)[C@@]1(C)C(=O)c3cc4c(cc3[C@H]1N(C)C2=O)OCO4	> 100 µM	> 100	> 100	> 100	> 100 µM	> 100	> 100 µM	> 100	–	43.3	> 100	62.9	95.5	41.1	> 100	> 100 µM	> 100	88	48.4	–
CC12CC3CC(C)(C1)CC(N=[N+]=[N-])(C3)C2	> 100 µM	> 100	> 100	> 100	> 100 µM	> 100	> 100 µM	> 100	> 100	–	–	–	–	–	–	–	–	–	–	–
[N-]=[N+]=CC(=O)OCC(N)C(=O)O (centres undefined)	–	> 100	2.86	> 100	> 100 µM	> 100	> 100 µM	> 100	> 100	–	1.85	0.711	0.808	> 100	> 100	0.58 µM	0.778	0.277	0.485	0.638
Nc1ccn([C@@H]2C=C(CO)[C@@H](O)[C@H]2O)c(=O)n1	316 µM and > 625 µM	–	–	–	500 µM and > 625 µM	–	394 µM and > 625 µM	–	–	–	0.114	–	–	4.56	–	0.16 µM and 0.0625 µM	0.0295	–	–	0.05
Cc1ccc(S(=O)(=O)N/N=C(\C(=O)Nc2cccc([N+](=O)[O-])c2)c2nc3ccc([N+](=O)[O-])cc3[nH]c2=O)cc1	> 100 µM	> 100	> 100	> 100	> 100 µM	> 100	> 100 µM	> 100	> 100	–	–	–	–	–	–	–	–	–	–	–
Cc1cc(C)n(-c2c(O)ccc(O)c2-n2nc(C)cc2C)n1	> 100 µM	> 100	> 100	> 100	> 100 µM	> 100	> 100 µM	> 100	–	–	–	–	–	–	–	–	–	–	–	–
CN=S(=O)(C[C@]1(O)CC2OC1C1OC(C)(C)OC21)c1ccccc1 (some centres undefined)	> 100 µM	> 100	> 100	> 100	> 100 µM	> 100	> 100 µM	–	–	–	–	–	–	–	–	–	–	–	–	–
Cc1c(Cl)ccc2c1NC(=O)C2(O)C1Cc2ccccc2C1=O (centres undefined)	> 100 µM	> 100	> 100	> 100	> 100 µM	> 100	> 100 µM	> 100	> 100	–	–	–	–	–	–	–	–	–	–	–
